# Measured values from patent US20170009228A1, “BIOLOGICAL MATERIALS AND THERAPEUTIC USES THEREOF” (IMPERIAL INNOVATIONS LIMITED, priority 2014, published 2017).
# Tests used:
# [1] = test system: primary human macrophages; experiment: Cytokine synthesis in primary human macrophages stimulated with tenascin-C or its domains; assay type: cell-based
# Procedure: Human monocytes were isolated from peripheral blood (London Blood Bank) and macrophages were derived from monocytes after differentiation for 4 days with 100 ng/ml of M-CSF as previously described (Foxwell (1998)).
# (§1) Immediately after isolation, RA membrane cells and macrophages were cultured at 1×10^5 cells/well in RPMI 1640 containing 10% (v/v) FBS and 100 U/ml (Units/ml) penicillin/streptomycin in 96-well tissue culture plates for 24 hours before stimulation. Synovial fibroblasts (used only at either passage number 2 or 3) were cultured at 1×10^4 cells/well in DMEM containing 10% (v/v) FBS and 100 U/ml penicillin/streptomycin in 96-well tissue culture plates for 24 hours before stimulation.
# (§2) Cells were incubated for 24 hours at 37° C. with the indicated doses of tenascin-C and recombinant tenascin-C fragments (1.0 μM-1.0 nM). Cells were also stimulated where indicated with LPS (1 ng/ml for human macrophages, 10 ng/ml for human fibroblasts, RA membrane cells and HEKs, 100 ng/ml for MEFS and BMDMs and 10 ng/ml for HEKS), PAM3 (10 ng/ml for human macrophages, human fibroblasts, and HEKs, 100 ng/ml for MEFs and BMDMs), murine IL-1 (5 ng/ml for MEFS) and murine TNF-α (100 ng/ml for MEFS). Unless specifically stated otherwise rough LPS was used for in vitro studies.
# (§3) Where stated, cells were pre-incubated with 10 μg/ml anti-CD14 antibody, 10 μg/ml IL1 receptor antagonist, 10 μg/ml anti-TLR2 antibody, 25 μg/ml anti-TLR4 antibody, 10 or 25 μg/ml isotype control antibody, 25 μg/ml polymyxin B, or 1 μg/ml msbB LPS, for 30 minutes at 37° C. before stimulation. Where stated, recombinant tenascin-C and FBG, and LPS were boiled for 15 minutes before addition to cells
# (§4) Supernatants were subsequently examined for the presence of the cytokines TNF-α, IL-6, and IL-8 by enzyme-linked immunosorbent assay (ELISA) according to the manufacturer's instructions. Absorbance was read on a spectrophotometric ELISA plate reader (Labsystems Multiscan Biochromic, Vantaa, Finland) and analyzed using the Ascent software program (Thermo Labsystems, Altrincham, UK).
# serum from RA patients = experiment: Western blot of citrullinated tenascin-C probed with serum from RA patients or healthy controls; assay type: binding, human; settings: sera from RA patients or normal healthy controls, not shown
# Procedure: SDS PAGE of Citrullinated Proteins 33.33 ul of citrullination reaction (cit-TNC alone or cit-TNC combined with cit-FBG) was loaded into NuPAGE® Novex 4-12% Bis-tris gel using a 1.0 mm 2D single lane well.
# After electrophoresis proteins were transferred to nitrocellulose and the membrane blocked and then cut into strips (up to 8 strips ˜0.7 cm wide). Strips were incubated with serum from RA patients or normal healthy individuals diluted 1:100 in 5% milk TBS-tween. Strips were incubated in 15 ml falcon tubes on rollers 1 h room temperature, then washed 3 ×5 min, 1×15 min in tubes with TBS-Tween. Strips were then incubated with secondary mouse anti-human Ig 1:5000 1 h in room temperature, then washed 3×5 min, 1×15 min in the dish with TBS-tween. Strips were finally incubated with ECL reagents and exposed to film.
# RA synovial fibroblasts = experiment: Cytokine synthesis in RA synovial fibroblasts stimulated with tenascin-C, FBG or LPS; assay type: cell-based, human
# Excerpt: RA membrane cells (representing a mixed population of all synovial cell types) were isolated from synovial membranes obtained from patients undergoing joint replacement surgery as previously described (Brennan (1989)). RA synovial fibroblasts were isolated from the mixed population of RA membrane cells as previously described (Brennan (1989)). The study was approved by the local Trust ethics committee (Riverside NHS Research Committee), and waste tissue (synovium after joint replacement surgery) was obtained only after receiving signed informed consent from the patient and anonymyzing the tissue to protect patient identity.
# as §1, §2, §4
# IL-1 = experiment: Addition of IL-1 receptor antagonist before FBG stimulation; assay type: cell-based; settings: 10 μg/ml IL1 receptor antagonist, data not shown
# Procedure: as §3, §4
Substance,"heat and polymyxin B sensitivity of cytokine stimulation ([1]; boiled 15 min, 25 μg/ml polymyxin B pre-incubation)","production of TNF-α, IL-6 and IL-8 ([1]; human macrophages, 24 h, 1.0 μM-1.0 nM)",reactivity with sera in blots (serum from RA patients),"IL-6 synthesis (RA synovial fibroblasts; RA synovial fibroblasts, 24 h)","TNF-α synthesis (RA synovial fibroblasts; fibroblasts, data not shown)",FBG induction of cytokines (IL-1)
tenascin-C: recombinant full-length human tenascin-C purified from HEK293 conditioned medium,"heat sensitive and unaffected by the LPS inhibitor, polymyxin B",dose dependently stimulated,No reactivity,only induced IL-6 synthesis,Neither LPS nor tenascin-C induced TNF-α synthesis,
IL-1 receptor antagonist: IL-1 receptor antagonist from R&D Systems,,,,,,did not inhibit
